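48-hour exposure; five concentrations; linearly interpolated endpoints. Here, GI50 denotes the concentration required for 50% inhibition of growth.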 Activity calls are given as the source filed them. Cut-off read from the data, not from the text of the source: active = GI50 up to about 1.1 µM and inactive = higher.
Columns and labels:
Experiment in all cases: NCI-60 cell line screen, 48 h
[1] = test system: T47D
[2] = test system: TK-10
[3] = test system: UACC-62
[4] = test system: HCT-15
[5] = test system: SK-OV-3
[6] = test system: K562
[7] = test system: PC-3
[8] = test system: SF-539
[9] = test system: A498
[10] = test system: UO-31
[11] = test system: EKVX
[12] = test system: HCT-116
[13] = test system: UACC-257
[14] = test system: SN12C
[15] = test system: ACHN
[16] = test system: SW-620
[17] = test system: KM12
[18] = test system: CCRF-CEM
[19] = test system: RXF 393
[20] = test system: RPMI-8226
[21] = test system: HOP-92
[22] = test system: OVCAR-8
[23] = test system: OVCAR-5
[24] = test system: OVCAR-3
[25] = test system: MDA-MB-231
[26] = test system: Malme-3M
[27] = test system: HOP-62
[28] = test system: MDA-N
[29] = test system: 786-0
[30] = test system: NCI-H460
[31] = test system: NCI-H226
[32] = test system: COLO 205
[33] = test system: MOLT-4
[34] = test system: NCI-H23
[35] = test system: SK-MEL-2
[36] = test system: SR
[37] = test system: NCI/ADR-RES
[38] = test system: LOX IMVI
[39] = test system: NCI-H522
[40] = test system: CAKI-1
[41] = test system: SNB-75
[42] = test system: BT-549
[43] = test system: HL-60
[44] = test system: SK-MEL-5
[45] = test system: MDA-MB-435
[46] = test system: A549
[47] = test system: SK-MEL-28
[48] = test system: Hs-578T
[49] = test system: SF-295
[50] = test system: SF-268
[51] = test system: HCC 2998
[52] = test system: M14
[53] = test system: U-251
[54] = test system: MCF7
[55] = test system: OVCAR-4
[56] = test system: DU-145
[57] = test system: HT-29
[58] = test system: IGROV-1
[59] = test system: SNB-19

O=C1Nc2ccccc2/C1=C1/Nc2ccccc2/C1=N/OCCOCCO
GI50 [1]: 2890 nM (inactive)
GI50 [2]: 1860 nM (inactive)
GI50 [3]: 1440 nM (inactive)
GI50 [4]: 664 nM
GI50 [5]: 361 nM (active)
GI50 [6]: 5000 nM (inactive)
GI50 [7]: 2360 nM (inactive)
GI50 [8]: 2880 nM (inactive)
GI50 [9]: 259 nM (active)
GI50 [10]: 662 nM (active)
GI50 [11]: 2670 nM (inactive)
GI50 [12]: 582 nM (active)
GI50 [13]: 17500 nM (inactive)
GI50 [14]: 2690 nM (inactive)
GI50 [15]: 738 nM (active)
GI50 [16]: 1820 nM (inactive)
GI50 [17]: 42.3 nM (active)
GI50 [18]: 3270 nM (inactive)
GI50 [19]: 1030 nM (active)
GI50 [20]: 3470 nM (inactive)
GI50 [21]: 13800 nM (inactive)
GI50 [22]: 3910 nM (inactive)
GI50 [23]: 4620 nM (inactive)
GI50 [24]: 2060 nM (inactive)
GI50 [25]: 5930 nM (inactive)
GI50 [26]: 1430 nM (inactive)
GI50 [27]: 3900 nM (inactive)
GI50 [28]: 3240 nM (inactive)
GI50 [29]: 2480 nM (inactive)
GI50 [30]: 1210 nM (inactive)
GI50 [31]: 547 nM (active)
GI50 [32]: 1390 nM (inactive)
GI50 [33]: 2960 nM (inactive)
GI50 [34]: 3070 nM (inactive)
GI50 [35]: 644 nM (active)
GI50 [36]: 1680 nM (inactive)
GI50 [37]: 4170 nM (inactive)
GI50 [38]: 869 nM (active)
GI50 [39]: 2470 nM (inactive)
GI50 [40]: 201 nM (active)
GI50 [41]: 2350 nM (inactive)
GI50 [42]: 2380 nM (inactive)
GI50 [43]: 2110 nM (inactive)
GI50 [44]: 1570 nM (inactive)
GI50 [45]: 3150 nM (inactive)
GI50 [46]: 1690 nM (inactive)
GI50 [47]: 5050 nM (inactive)
GI50 [48]: 592 nM (active)
GI50 [49]: 3100 nM (inactive)
GI50 [50]: 3190 nM (inactive)
GI50 [51]: 2760 nM (inactive)
GI50 [52]: 1900 nM (inactive)
GI50 [53]: 3290 nM (inactive)
GI50 [54]: 1990 nM (inactive)
GI50 [55]: 7190 nM (inactive)
GI50 [56]: 1390 nM (inactive)
GI50 [57]: 1450 nM (inactive)
GI50 [58]: 83.6 nM (active)
GI50 [59]: 6520 nM (inactive)

NC(=O)NC(=O)c1ccc(NC(=O)CBr)cc1
GI50 [1]: 1670 nM (inactive)
GI50 [2]: 1310 nM (inactive)
GI50 [3]: 1860 nM (inactive)
GI50 [4]: 1800 nM
GI50 [5]: 3270 nM (inactive)
GI50 [6]: 705 nM (active)
GI50 [7]: 1960 nM (inactive)
GI50 [8]: 2180 nM (inactive)
GI50 [9]: 14300 nM (inactive)
GI50 [10]: 1420 nM (inactive)
GI50 [11]: 2380 nM (inactive)
GI50 [12]: 830 nM (active)
GI50 [13]: 1940 nM (inactive)
GI50 [14]: 561 nM (active)
GI50 [15]: 1440 nM (inactive)
GI50 [16]: 344 nM (active)
GI50 [17]: 4000 nM (inactive)
GI50 [18]: 76.9 nM (active)
GI50 [19]: 1770 nM (inactive)
GI50 [20]: 1100 nM (active)
GI50 [21]: 1600 nM (inactive)
GI50 [22]: 2260 nM (inactive)
GI50 [23]: 2750 nM (inactive)
GI50 [24]: 843 nM (active)
GI50 [25]: 2490 nM (inactive)
GI50 [26]: 1540 nM (inactive)
GI50 [27]: 1940 nM (inactive)
GI50 [28]: 2070 nM (inactive)
GI50 [29]: 278 nM (active)
GI50 [30]: 4660 nM (inactive)
GI50 [31]: 3330 nM (inactive)
GI50 [32]: 1480 nM (inactive)
GI50 [33]: 241 nM (active)
GI50 [34]: 2060 nM (inactive)
GI50 [35]: 1990 nM (inactive)
GI50 [36]: 333 nM (active)
GI50 [37]: 2560 nM (inactive)
GI50 [38]: 558 nM (active)
GI50 [39]: 128 nM (active)
GI50 [40]: 679 nM (active)
GI50 [41]: 1810 nM (inactive)
GI50 [42]: 2100 nM (inactive)
GI50 [43]: 1540 nM (inactive)
GI50 [44]: 1620 nM (inactive)
GI50 [45]: 1530 nM (inactive)
GI50 [46]: 14100 nM (inactive)
GI50 [47]: 3200 nM (inactive)
GI50 [48]: 2310 nM (inactive)
GI50 [49]: 13600 nM (inactive)
GI50 [50]: 1400 nM (inactive)
GI50 [51]: 12800 nM (inactive)
GI50 [52]: 11800 nM (inactive)
GI50 [53]: 984 nM (active)
GI50 [54]: 1760 nM (inactive)
GI50 [55]: 1660 nM (inactive)
GI50 [56]: 2440 nM (inactive)
GI50 [57]: 1730 nM (inactive)
GI50 [58]: 2030 nM (inactive)
GI50 [59]: 21900 nM (inactive)

From ChEMBL document CHEMBL1201862, “PubChem BioAssay data set” (2004)
